Measurements: ChEMBL document CHEMBL4261496, “Targeting quinolone- and aminocoumarin-resistant bacteria with new gyramide analogs that inhibit DNA gyrase” (Medchemcomm, 2017)

Assay: Ratio of MIC for Escherichia coli BW25113 to MIC for Escherichia coli JW5503
Format: functional

Cc1ccc(F)cc1S(=O)(=O)N[C@@H]1CCN(Cc2ccc(-c3ccccc3)cc2)C1
Ratio: > 1600
